Laboratory results published in patent US11339130B1 (Blade Therapeutics, Inc., priority 2016, dated 2022).

Tests used:
Human Calpain 1/NS1 = target: T1, Human Calpain 1/NS1 (Homo sapiens, UniProt P07384); assay: Calpain inhibition continuous fluorescence (FRET) assay, Human Calpain 1/NS1; type: biochemical; conditions: read-out: Human Calpain 1/NS1 IC50
T1 sequence (P07384 1-714): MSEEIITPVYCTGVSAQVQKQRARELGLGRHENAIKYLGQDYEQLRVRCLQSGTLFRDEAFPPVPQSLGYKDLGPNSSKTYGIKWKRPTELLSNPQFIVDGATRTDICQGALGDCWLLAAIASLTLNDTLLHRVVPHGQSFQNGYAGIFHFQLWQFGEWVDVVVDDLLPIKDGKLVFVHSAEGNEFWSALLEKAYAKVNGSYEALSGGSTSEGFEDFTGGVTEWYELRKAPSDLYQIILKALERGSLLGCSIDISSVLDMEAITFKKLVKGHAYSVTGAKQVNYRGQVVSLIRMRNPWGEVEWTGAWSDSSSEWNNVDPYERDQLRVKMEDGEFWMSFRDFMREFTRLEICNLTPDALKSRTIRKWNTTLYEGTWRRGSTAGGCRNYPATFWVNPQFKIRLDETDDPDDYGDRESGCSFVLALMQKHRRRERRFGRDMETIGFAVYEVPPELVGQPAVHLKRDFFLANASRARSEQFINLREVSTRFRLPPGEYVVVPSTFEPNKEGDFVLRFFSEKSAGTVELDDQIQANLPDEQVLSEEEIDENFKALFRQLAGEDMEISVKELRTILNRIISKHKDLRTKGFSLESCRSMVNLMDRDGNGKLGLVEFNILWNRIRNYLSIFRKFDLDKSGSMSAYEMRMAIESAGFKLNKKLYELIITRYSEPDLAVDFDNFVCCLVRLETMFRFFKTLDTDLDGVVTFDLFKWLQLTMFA
T1 sequence (P04632 1-268 partner): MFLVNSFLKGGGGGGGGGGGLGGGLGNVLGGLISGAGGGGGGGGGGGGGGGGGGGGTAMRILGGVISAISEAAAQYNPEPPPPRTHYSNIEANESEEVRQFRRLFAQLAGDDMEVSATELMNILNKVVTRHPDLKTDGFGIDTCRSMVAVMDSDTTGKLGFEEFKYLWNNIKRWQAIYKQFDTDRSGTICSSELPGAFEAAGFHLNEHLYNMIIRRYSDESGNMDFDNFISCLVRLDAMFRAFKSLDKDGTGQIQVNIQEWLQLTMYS
How it was run: (§1)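 Human calpains 1, 2 and 9 preincubated with inhibitor at 25 °C in 50 mM Tris pH 7.5, 100 mM NaCl, 1 mM DTT; reaction started with 5-FAM/QXL 520 FRET peptide plus CaCl2 for activation. Fluorescence (490/520 nm) followed 10 min; rates from 1-5 min slopes fitted to 4-parameter logistic for IC50.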

Human Calpain 2/NS1 = target: T2, Human Calpain 2/NS1 (Homo sapiens, UniProt P17655); assay: Calpain inhibition continuous fluorescence (FRET) assay, Human Calpain 2/NS1; type: biochemical; conditions: read-out: Human Calpain 2/NS1 IC50
T2 sequence (P17655 1-700): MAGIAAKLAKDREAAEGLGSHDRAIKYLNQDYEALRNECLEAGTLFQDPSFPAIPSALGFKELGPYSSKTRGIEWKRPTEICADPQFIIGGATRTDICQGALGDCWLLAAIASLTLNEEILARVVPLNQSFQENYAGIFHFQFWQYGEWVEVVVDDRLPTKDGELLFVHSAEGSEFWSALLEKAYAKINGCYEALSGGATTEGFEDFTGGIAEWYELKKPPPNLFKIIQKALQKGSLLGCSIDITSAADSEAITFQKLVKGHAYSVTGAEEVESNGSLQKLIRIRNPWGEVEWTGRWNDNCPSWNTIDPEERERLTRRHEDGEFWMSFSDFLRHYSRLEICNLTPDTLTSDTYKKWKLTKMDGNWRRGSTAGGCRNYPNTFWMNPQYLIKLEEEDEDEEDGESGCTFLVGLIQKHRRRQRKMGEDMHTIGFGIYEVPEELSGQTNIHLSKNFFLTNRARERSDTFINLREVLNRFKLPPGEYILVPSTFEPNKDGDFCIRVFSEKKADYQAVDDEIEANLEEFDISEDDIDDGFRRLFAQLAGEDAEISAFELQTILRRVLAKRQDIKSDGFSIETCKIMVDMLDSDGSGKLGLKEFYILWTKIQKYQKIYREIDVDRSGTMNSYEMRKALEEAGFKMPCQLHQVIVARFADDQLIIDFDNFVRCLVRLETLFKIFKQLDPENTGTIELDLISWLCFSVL
T2 sequence (P04632 1-268 partner): T1 sequence (P04632 1-268 partner)
How it was run: as §1

Human Calpain 9/NS1 = target: T3, Human Calpain 9/NS1 (Homo sapiens, UniProt O14815); assay: Calpain inhibition continuous fluorescence (FRET) assay, Human Calpain 9/NS1; type: biochemical; conditions: read-out: Human Calpain 9/NS1 IC50
T3 sequence (O14815 1-690): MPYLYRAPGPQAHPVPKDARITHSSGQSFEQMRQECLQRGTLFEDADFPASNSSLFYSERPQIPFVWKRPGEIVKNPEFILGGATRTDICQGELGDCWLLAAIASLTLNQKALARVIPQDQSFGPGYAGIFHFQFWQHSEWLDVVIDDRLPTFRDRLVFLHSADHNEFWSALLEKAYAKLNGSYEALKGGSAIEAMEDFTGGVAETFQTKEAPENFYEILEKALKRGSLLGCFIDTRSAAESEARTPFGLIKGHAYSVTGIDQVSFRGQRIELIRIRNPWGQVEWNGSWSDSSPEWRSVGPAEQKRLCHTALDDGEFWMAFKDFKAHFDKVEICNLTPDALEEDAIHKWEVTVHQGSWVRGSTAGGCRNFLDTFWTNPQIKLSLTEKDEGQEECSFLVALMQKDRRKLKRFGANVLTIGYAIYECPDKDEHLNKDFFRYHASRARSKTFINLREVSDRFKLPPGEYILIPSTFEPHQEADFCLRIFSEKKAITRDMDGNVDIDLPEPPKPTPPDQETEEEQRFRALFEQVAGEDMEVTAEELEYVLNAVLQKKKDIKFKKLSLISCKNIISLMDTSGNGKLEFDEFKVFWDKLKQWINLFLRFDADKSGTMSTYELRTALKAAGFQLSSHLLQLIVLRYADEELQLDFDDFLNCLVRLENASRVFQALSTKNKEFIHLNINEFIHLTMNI
T3 sequence (P04632 1-268 partner): T1 sequence (P04632 1-268 partner)
How it was run: as §1

[1] = test system: Calpain activity in SH-SY5Y cells (SBDP-150); assay: SH-SY5Y Spectrin western blot assay (SBDP-150 breakdown product, A23187-induced); type: cell-based; conditions: Homo sapiens; SH-SY5Y cells, A23187-induced SBDP-150, western blot; read-out: SH-SY5Y Spectrin IC50
[2] = test system: Calpain activity in SH-SY5Y cells; assay: SH-SY5Y + AMC fluorescence assay (Suc-LLVY-AMC substrate); type: cell-based; conditions: read-out: SH-SY5Y + AMC IC50

| SMILES | IC50 (Human Calpain 1/NS1) [µM] | IC50 (Human Calpain 2/NS1) [µM] | IC50 (Human Calpain 9/NS1) [µM] | IC50 [1] [µM] | IC50 [2] [µM] |
| --- | --- | --- | --- | --- | --- |
| NC(=O)C(=O)[C@@H](Cc1ccccc1)NC(=O)c1cn(C(F)F)nc1-c1ccccc1 [Compound 380, (R)—N-(4-amino-3,4-dioxo-1-phenylbutan-2-yl)-1-(difluoromethyl)-3-phenyl-1H-pyrazole-4-carboxamide] | < 3 | < 3 | < 3 | < 10 | < 10 |
| NC(=O)C(=O)C(Cc1ccccc1)NC(=O)c1cn(C(F)F)nc1-c1cccc(F)c1 (centres unmarked) [Compound 381, N-(4-amino-3,4-dioxo-1-phenylbutan-2-yl)-1-(difluoromethyl)-3-(3-fluorophenyl)-1H-pyrazole-4-carboxamide] | < 3 | < 3 | < 3 | < 10 | < 10 |
| Cc1ccccc1-c1nn(C(F)F)cc1C(=O)NC(Cc1ccccc1)C(=O)C(N)=O (centres unmarked) [Compound 382, N-(4-amino-3,4-dioxo-1-phenylbutan-2-yl)-1-(difluoromethyl)-3-(o-tolyl)-1H-pyrazole-4-carboxamide] | < 3 | < 3 | < 3 | 10 to 25 | < 10 |
| NC(=O)C(=O)C(Cc1ccccc1)NC(=O)c1cn(C(F)F)nc1-c1ccccc1F (centres unmarked) [Compound 383, N-(4-amino-3,4-dioxo-1-phenylbutan-2-yl)-1-(difluoromethyl)-3-(2-fluorophenyl)-1H-pyrazole-4-carboxamide] | < 3 | < 3 | < 3 | < 10 | < 10 |
| COc1cccc(-c2nn(C(F)F)cc2C(=O)NC(Cc2ccccc2)C(=O)C(N)=O)c1 (centres unmarked) [Compound 384, N-(4-amino-3,4-dioxo-1-phenylbutan-2-yl)-1-(difluoromethyl)-3-(3-methoxyphenyl)-1H-pyrazole-4-carboxamide] | < 3 | < 3 | < 3 | < 10 | < 10 |
| COc1ccc(C[C@H](NC(=O)c2oc(C)nc2-c2ccccc2)C(=O)C(N)=O)cc1 [Compound 385, (S)—N-(4-amino-1-(4-methoxyphenyl)-3,4-dioxobutan-2-yl)-2-methyl-4-phenyloxazole-5-carboxamide] | < 3 | < 3 | < 3 | < 10 | > 25 |
| Cc1nc(-c2ccccc2)c(C(=O)N[C@@H](CCc2ccccc2)C(=O)C(N)=O)o1 [Compound 386, (S)—N-(1-amino-1,2-dioxo-5-phenylpentan-3-yl)-2-methyl-4-phenyloxazole-5-carboxamide] | < 3 | < 3 | < 3 | > 25 | 10 to 25 |
| CC[C@@H](C)[C@H](NC(=O)c1oc(C)nc1-c1ccccc1)C(=O)C(N)=O [Compound 387, N-((3S,4R)-1-amino-4-methyl-1,2-dioxohexan-3-yl)-2-methyl-4-phenyloxazole-5-carboxamide] | < 3 | < 3 | < 3 | > 25 | > 25 |
| Cc1cc(C)cc(C[C@H](NC(=O)c2oc(C)nc2-c2ccccc2)C(=O)C(N)=O)c1 [Compound 388, (S)—N-(4-amino-1-(3,5-dimethylphenyl)-3,4-dioxobutan-2-yl)-2-methyl-4-phenyloxazole-5-carboxamide] | < 3 | < 3 | < 3 | < 10 | 10 to 25 |
| Cc1nc(-c2ccccc2)c(C(=O)N[C@@H](Cc2c[nH]c3ccccc23)C(=O)C(N)=O)o1 [Compound 389, (S)—N-(4-amino-1-(1H-indol-3-yl)-3,4-dioxobutan-2-yl)-2-methyl-4-phenyloxazole-5-carboxamide] | < 3 | < 3 | < 3 | < 10 | < 10 |
| COc1cc(C(=O)NC(Cc2ccccc2)C(=O)C(N)=O)n(-c2ccccc2)n1 (centres unmarked) [Compound 392, N-(4-amino-3,4-dioxo-1-phenylbutan-2-yl)-3-methoxy-1-phenyl-1H-pyrazole-5-carboxamide] | > 10 | > 10 | > 10 | 10 to 25 | < 10 |
| NC(=O)C(=O)C(Cc1ccccc1)NC(=O)c1oc(C2CC2)nc1-c1ccccc1 (centres unmarked) [Compound 393, N-(4-amino-3,4-dioxo-1-phenylbutan-2-yl)-2-cyclopropyl-4-phenyloxazole-5-carboxamide] | < 3 | < 3 | < 3 | 10 to 25 | < 10 |
| NC(=O)C(=O)C(Cc1ccccc1)NC(=O)c1nc(C2CC2)oc1-c1ccccc1 (centres unmarked) [Compound 394, N-(4-amino-3,4-dioxo-1-phenylbutan-2-yl)-2-cyclopropyl-5-phenyloxazole-4-carboxamide] | < 3 | < 3 | < 3 | > 25 | > 25 |
| O=CC(Cc1ccccc1)NC(=O)c1cn(C(F)F)nc1-c1ccccc1 (centres unmarked) [Compound 396, 1-(difluoromethyl)-N-(1-oxo-3-phenylpropan-2-yl)-3-phenyl-1H-pyrazole-4-carboxamide] | < 3 | < 3 | < 3 | < 10 | 10 to 25 |
| O=CC(Cc1ccccc1)NC(=O)c1cnoc1-c1ccccc1 (centres unmarked) [Compound 397, N-(1-oxo-3-phenylpropan-2-yl)-5-phenylisoxazole-4-carboxamide] | < 3 | < 3 | < 3 | < 10 | > 25 |
| Cc1cc(C(=O)NC(C=O)Cc2ccccc2)n(-c2ccccn2)n1 (centres unmarked) [Compound 398, 3-methyl-N-(1-oxo-3-phenylpropan-2-yl)-1-(pyridin-2-yl)-1H-pyrazole-5-carboxamide] | < 3 | < 3 | < 3 | > 25 | > 25 |
